Measurements from publication PMC12640959, “Elucidation of anti-SARS-CoV-2 and anti-inflammatory bioactives in Qingyan Dropping Pills via integrated in silico screening and bioactivity validation” (Frontiers in Medicine, 2025).

System: SARS-CoV-2 Omicron BA.5
Test: cytopathic effects (CPE) inhibition assay in Vero E6 cells
Assay type: cell-based
Conditions: result in words

SMILES: C[C@@H]1O[C@@H](O[C@H]2[C@H](Oc3cc(O)c4c(=O)cc(-c5ccc(O)cc5)oc4c3)O[C@H](CO)[C@@H](O)[C@@H]2O)[C@H](O)[C@H](O)[C@H]1O [RHO, rhoifolin]
- inhibition of the SARS-CoV-2 Omicron BA.5 variant: failed to inhibit
